Measured values from the NIST ThermoML archive (doi:10.1016/j.tca.2014.12.020).
Numbers after ± are expanded uncertainties.

Tests used:
[1] = molar heat capacity at constant pressure; conditions: 101.33 kPa, Small sample (50 mg) DSC
[2] = Molar enthalpy of transition or fusion; conditions: Crystal; DSC
[3] = Crystal; DTA

molar heat capacity at constant pressure ([1]; 298.15 K, Crystal)	molar heat capacity at constant pressure ([1]; 338.15 K, Liquid)	Molar enthalpy of transition or fusion [2]	molar heat capacity at constant pressure ([1]; 338.15 K, Crystal)	Normal melting temperature [3]	Structure (SMILES)
517.75 ± 23 J/K/mol	648.61 ± 28 J/K/mol	12.4 ± 0.359 kcal/mol			CCCCCCCCCCCCCCCCCC(=O)O [octadecanoic acid]
444.11 ± 20 J/K/mol			553.69 ± 23 J/K/mol		CCCCCCCCCCCCOS(=O)(=O)[O-].[Na+] [sodium dodecyl sulfate]
385.95 ± 16 J/K/mol	509.27 ± 21 J/K/mol	10.5 ± 0.263 kcal/mol		53.00 ± 5 °C	CCCCCCCCCCCCCC(=O)O [tetradecanoic acid]
